pEC50: −log10 of the molar value.
Tested on: HEK293T cells carrying the ATF4 luciferase reporter
Experiment: ATF4-Luc assay (in vitro model of vanishing white matter disease)
Format: cell-based
Settings: Homo sapiens, HEK-293T, 1 μg/mL tunicamycin, 7 hours
Method in brief: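 Stable HEK293T line expressing firefly luciferase behind the human full-length ATF4 5′-UTR, grown in DMEM/10% FBS. Cells were co-treated with 1 μg/mL tunicamycin and 200 nM compound for 7 h. Luciferase luminescence was read as the output, and EC50 values were derived from it.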

SMILES	pEC50
O=C(COc1ccc(Cl)c(F)c1)NC12CCC(C(=O)Nc3ccc(C(F)(F)F)cc3)(CC1)OC2 [Compound 337, 4-[2-(4-chloro-3-fluorophenoxy)acetamido]-N-[4-(trifluoromethyl)phenyl]-2-oxabicyclo[2.2.2]octane-1-carboxamide]	> 6.60
O=C(COc1ccc(Cl)c(F)c1)NC12CCC(C(=O)Nc3ccc(Cl)c(F)c3)(CC1)OC2 [Compound 338, 4-[2-(4-chloro-3-fluorophenoxy)acetamido]-N-(4-chloro-3-fluorophenyl)-2-oxabicyclo[2.2.2]octane-1-carboxamide]	> 6.60
NC(=O)c1ccc(CNC(=O)C23CC(NC(=O)COc4ccc(Cl)c(F)c4)(C2)C3)nc1 [Compound 339, 6-[({3-[2-(4-chloro-3-fluorophenoxy)acetamido]bicyclo[1.1.1]pentane-1-carbonyl}amino)methyl]pyridine-3-carboxamide]	< 5.70
O=C(COc1ccc(Cl)c(F)c1)NC12CC(C(=O)NCCOc3ccc(Cl)c(F)c3)(C1)C2 [Compound 340, 3-[2-(4-chloro-3-fluorophenoxy)acetamido]-N-[2-(4-chloro-3-fluorophenoxy)ethyl]bicyclo[1.1.1]pentane-1-carboxamide]	> 6.60
O=C(COc1ccc(Cl)c(F)c1)NC12CCC(C(=O)Nc3ccc(OC(F)(F)F)nc3)(CC1)OC2 [Compound 341, 4-[2-(4-chloro-3-fluorophenoxy)acetamido]-N-[6-(trifluoromethoxy)pyridin-3-yl]-2-oxabicyclo[2.2.2]octane-1-carboxamide]	> 6.60
O=C(COc1ccc(Cl)c(F)c1)NC12CCC(C(=O)NCc3ccc(Cl)cn3)(CC1)OC2 [Compound 342, 4-[2-(4-chloro-3-fluorophenoxy)acetamido]-N-[(5-chloropyridin-2-yl)methyl]-2-oxabicyclo[2.2.2]octane-1-carboxamide]	> 6.60
O=C(COc1ccc(Cl)c(F)c1)NC12CC(C(=O)N(CCO)Cc3ccc(Cl)c(F)c3)(C1)C2 [Compound 343, 3-[2-(4-chloro-3-fluorophenoxy)acetamido]-N-[(4-chloro-3-fluorophenyl)methyl]-N-(2-hydroxyethyl)bicyclo[1.1.1]pentane-1-carboxamide]	5.70 to 6.00
O=C(COc1ccc(Cl)c(F)c1)NC12CCC(C(=O)N(CCO)Cc3ccc(Cl)c(F)c3)(CC1)CC2 [Compound 344, 4-[2-(4-chloro-3-fluorophenoxy)acetamido]-N-[(4-chloro-3-fluorophenyl)methyl]-N-(2-hydroxyethyl)bicyclo[2.2.2]octane-1-carboxamide]	5.70 to 6.00
O=C(COc1ccc(Cl)c(F)c1)NC12CC(C(=O)NCc3ccc(C(F)F)cn3)(C1)C2 [Compound 345, 3-[2-(4-chloro-3-fluorophenoxy)acetamido]-N-{[5-(difluoromethyl)pyridin-2-yl]methyl}bicyclo[1.1.1]pentane-1-carboxamide]	6.30 to 6.60
O=C(COc1ccc(Cl)c(F)c1)NC12CCC(C(=O)NCc3ccc(C(F)F)cn3)(CC1)CC2 [Compound 346, 4-[2-(4-chloro-3-fluorophenoxy)acetamido]-N-{[5-(difluoromethyl)pyridin-2-yl]methyl}bicyclo[2.2.2]octane-1-carboxamide]	> 6.60
O=C(COc1ccc(Cl)c(F)c1)NC12CCC(C(=O)NCC(=O)c3ccc(Cl)c(F)c3)(CC1)[C@H](O)C2 [Compound 347, (2R)-4-[2-(4-chloro-3-fluorophenoxy)acetamido]-N-[2-(4-chloro-3-fluorophenyl)-2-oxoethyl]-2-hydroxybicyclo[2.2.2]octane-1-carboxamide]	> 6.60
